Patent publication US11945822B2, “Pyrazolo-triazine and/or pyrazolo-pxrimidine derivatives as selective inhibitor of cyclin dependent kinase” (QURIENT CO., LTD., priority 2018, dated 2024)
Where two headings read alike, the source gives them in different places.

Experiments:
[1] = test system: H460; experiment: Cellular H460 viability assay (CellTiter-Glo, 72 hours); format: cell-based; details: Homo sapiens, NCI-H460
Procedure, shortened: (§1)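 72 h treatment, 37 °C, 5% CO2; DMSO ctrl, final <0.1%; CellTiter-Glo luminescence; n=2.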

[2] = biological target: T1, CDK7/Cyclin H/MNAT1 (Homo sapiens, UniProt P50613); experiment: Enzymatic assay for CDK7 (FRET based LANCE Ultra kinase assay); format: biochemical
T1 construct: purchased Invitrogen PR6749B
Procedure, shortened: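 LANCE Ultra TR-FRET kinase assay using a ULight-labeled peptide substrate and a Eu-labeled anti-phospho antibody, with ATP at its Km. Purified CDK/cyclin complex was added to compound after brief centrifugation.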

[3] = biological target: T2, CDK5/p25 (Homo sapiens, UniProt Q00535); experiment: Enzymatic assay for CDK5 (FRET based LANCE Ultra kinase assay); format: biochemical
T2 construct: purchased Invitrogen PR8543B
Procedure, shortened: (§2)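 Each CDK complex ([…]) phosphorylated 68 nM ULight-MBP peptide with ATP at Km for 60 min at 23° C., against 8 compound doses (4-fold dilutions). EDTA/Eu-anti-phospho-MBP detection, 60 min, then TR-FRET emission at 615 and 665 nm.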

[4] = test system: A2780; experiment: Cellular A2780 viability assay (CellTiter-Glo, 72 hours); format: cell-based; details: Homo sapiens
From the text: Human T-cell acute lymphoblastic leukemia cell line, MOLT-4 (ATCC, Cat #CRL-1582), Human multiple myeloma cell line, RPMI-8226 (Invitrogen, Cat #22400-089) and MM.1S (ATCC, Cat #CRL-2974), NSCLC (Non-small cell lung cancer) cell line H460 (ATCC, Cat #HTB-177), Human colon colorectal carcinoma cell line HCT116 (ATCC, Cat #CCL-247), Human acute monocytic leukemia cell line MV4-11 (ATCC, Cat #CRL-9591), OVCAR-3 (ATCC, Cat #HTB-161) and A2780 (ECACC, Cat #93112519) were obtained from ATCC. Cells were grown in RPMI-1640 media (Invitrogen, Cat #22400-089) supplemented with 10% FBS (Invitrogen, Cat #10099141) and 1% penicillin/streptomycin (Invitrogen, Cat #15070063) and cultured at 37° C., 5% CO2 in a humidified chamber. All cell lines were routinely tested for mycoplasma.
The effect of the CDK7 inhibitor to inhibit the growth of target cancer cells was evaluated through the 72 hours time period of viability assay. Briefly, the candidate cell line ware plated in 96 well plate at the following density of cells respectively. 1×10^4 cells/well for MOLT-4, RPMI-8226, MV4-11 and MM.1S, 5×10^3 for H460, HCT116 and OVCAR-3 and IX 10^3 for A2780. After 24 hours, the cells were treated with various concentrations of the compound (ranging from 0.0015 uM to 10 uM). DMSO solvent without compound served as a control and final DMSO concentration less than 0.1%. After 72 hours of incubation at 37° C., 5% CO2 incubator, cells were analyzed for the viability using the CellTiter-Glo Luminescent Cell Viability Assay (Promega, Cat #G7570). All viability assays were performed in duplicate and Luminescence was read using an Envision (Perkin Elmer, USA). Data was analyzed using XLfit software.

[5] = biological target: T3, CDK2/Cyclin A (Homo sapiens, UniProt P24941); experiment: Enzymatic assay for CDK2 (FRET based LANCE Ultra kinase assay); format: biochemical
T3 construct: purchased Invitrogen PV6290
Procedure, shortened: as §2

[6] = test system: MV4-11; experiment: Cellular MV4-11 viability assay (CellTiter-Glo, 72 hours); format: cell-based; details: Homo sapiens
Procedure, shortened: as §1

[7] = biological target: T4, CDK1/Cyclin B (Homo sapiens, UniProt P06493); experiment: Enzymatic assay for CDK1 (FRET based LANCE Ultra kinase assay); format: biochemical
T4 construct: purchased Invitrogen PR4768C
Procedure, shortened: as §2

[8] = read-out: CDK7 enzymatic activity (IC50 activity range)
[9] = read-out: CDK5 enzymatic activity (IC50 activity range)
[10] = read-out: CDK2 enzymatic activity (IC50 activity range)
[11] = read-out: CDK1 enzymatic activity (IC50 activity range)
[12] = read-out: CDK7 enzymatic activity (IC50 range)
[13] = read-out: CDK5 enzymatic activity (IC50 range)
[14] = read-out: CDK2 enzymatic activity (IC50 range)
[15] = read-out: CDK1 enzymatic activity (IC50 range)

T1 sequence (P50613 whole entry): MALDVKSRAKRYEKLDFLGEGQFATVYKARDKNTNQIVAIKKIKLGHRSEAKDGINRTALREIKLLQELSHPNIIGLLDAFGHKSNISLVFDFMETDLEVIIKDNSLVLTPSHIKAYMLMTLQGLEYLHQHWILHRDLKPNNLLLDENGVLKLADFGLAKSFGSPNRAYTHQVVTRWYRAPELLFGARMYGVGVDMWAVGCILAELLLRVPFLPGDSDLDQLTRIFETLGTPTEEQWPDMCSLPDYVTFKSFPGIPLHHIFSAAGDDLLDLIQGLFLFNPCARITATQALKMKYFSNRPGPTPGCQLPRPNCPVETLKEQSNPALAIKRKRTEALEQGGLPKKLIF
T1 sequence (P51946 whole entry partner): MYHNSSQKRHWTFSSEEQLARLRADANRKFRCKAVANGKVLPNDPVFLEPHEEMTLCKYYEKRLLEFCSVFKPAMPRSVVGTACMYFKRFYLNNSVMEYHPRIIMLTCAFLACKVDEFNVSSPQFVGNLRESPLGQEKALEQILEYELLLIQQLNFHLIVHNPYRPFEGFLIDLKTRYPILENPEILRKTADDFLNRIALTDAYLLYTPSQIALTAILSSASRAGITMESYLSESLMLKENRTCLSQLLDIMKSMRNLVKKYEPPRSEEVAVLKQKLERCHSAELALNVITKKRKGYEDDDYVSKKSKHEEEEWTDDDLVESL
T1 sequence (P51948 whole entry partner): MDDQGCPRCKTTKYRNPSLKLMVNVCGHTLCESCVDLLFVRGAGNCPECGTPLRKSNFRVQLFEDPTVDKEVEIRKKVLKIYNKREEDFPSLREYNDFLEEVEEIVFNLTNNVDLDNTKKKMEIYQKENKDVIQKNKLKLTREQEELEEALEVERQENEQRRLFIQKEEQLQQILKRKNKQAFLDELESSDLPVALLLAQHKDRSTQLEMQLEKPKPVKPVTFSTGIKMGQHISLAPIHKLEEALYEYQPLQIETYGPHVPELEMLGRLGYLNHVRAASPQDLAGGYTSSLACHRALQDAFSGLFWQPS
T2 sequence (Q00535 whole entry): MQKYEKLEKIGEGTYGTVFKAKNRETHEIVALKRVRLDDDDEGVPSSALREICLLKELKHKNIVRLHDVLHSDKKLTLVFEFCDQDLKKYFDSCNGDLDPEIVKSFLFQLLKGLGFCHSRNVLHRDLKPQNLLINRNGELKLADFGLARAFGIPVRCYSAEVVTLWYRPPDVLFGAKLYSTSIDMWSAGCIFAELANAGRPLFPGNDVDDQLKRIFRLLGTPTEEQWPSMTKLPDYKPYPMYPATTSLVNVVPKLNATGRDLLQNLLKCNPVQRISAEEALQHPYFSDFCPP
T2 sequence (Q15078 99-307 partner limits assumed): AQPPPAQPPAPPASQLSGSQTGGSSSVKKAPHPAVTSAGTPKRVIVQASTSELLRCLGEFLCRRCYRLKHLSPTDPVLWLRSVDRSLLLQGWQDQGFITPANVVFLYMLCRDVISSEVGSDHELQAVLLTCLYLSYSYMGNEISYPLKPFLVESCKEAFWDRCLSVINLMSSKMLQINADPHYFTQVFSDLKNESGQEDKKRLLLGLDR
T4 sequence (P06493 whole entry): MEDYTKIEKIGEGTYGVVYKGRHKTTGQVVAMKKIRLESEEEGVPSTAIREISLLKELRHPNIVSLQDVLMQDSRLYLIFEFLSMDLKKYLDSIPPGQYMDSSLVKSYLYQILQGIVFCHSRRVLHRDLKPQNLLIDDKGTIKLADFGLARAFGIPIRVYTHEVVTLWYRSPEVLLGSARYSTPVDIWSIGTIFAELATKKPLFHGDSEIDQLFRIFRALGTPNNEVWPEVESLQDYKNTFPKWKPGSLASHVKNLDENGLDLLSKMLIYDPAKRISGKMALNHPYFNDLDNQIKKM
T4 sequence (P14635 whole entry partner): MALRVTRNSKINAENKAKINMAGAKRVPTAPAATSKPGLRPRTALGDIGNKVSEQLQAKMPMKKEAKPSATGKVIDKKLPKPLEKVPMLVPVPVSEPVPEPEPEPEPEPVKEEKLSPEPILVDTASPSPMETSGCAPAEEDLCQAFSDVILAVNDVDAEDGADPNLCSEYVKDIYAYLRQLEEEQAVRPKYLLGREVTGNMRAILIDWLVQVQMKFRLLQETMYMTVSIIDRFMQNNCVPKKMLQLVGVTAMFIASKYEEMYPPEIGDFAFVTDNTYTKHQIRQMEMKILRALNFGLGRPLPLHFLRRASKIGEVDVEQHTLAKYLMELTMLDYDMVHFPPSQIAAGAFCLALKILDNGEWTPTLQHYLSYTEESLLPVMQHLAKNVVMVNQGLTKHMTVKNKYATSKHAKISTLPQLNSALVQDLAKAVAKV

SMILES | IC50 [1] [µM] | CDK1/CDK7: Selectivity of CDK7 inhibition over CDK1 inhibition ([2]; CDK1/CDK7) | CDK2/CDK7: Selectivity of CDK7 inhibition over CDK2 inhibition ([2]; CDK2/CDK7) | CDK5/CDK7: Selectivity of CDK7 inhibition over CDK5 inhibition ([2]; CDK5/CDK7) | IC50 [2, 8] [µM] | IC50 [3, 9] [µM] | IC50 [4] [µM] | IC50 [5, 10] [µM] | IC50 [6] [µM] | IC50 [7, 11] [µM] | CDK1/CDK7: Selectivity of CDK7 inhibition over CDK1 inhibition ([2]; CDK7 over CDK1) | CDK2/CDK7: Selectivity of CDK7 inhibition over CDK2 inhibition ([2]; CDK7 over CDK2) | CDK5/CDK7: Selectivity of CDK7 inhibition over CDK5 inhibition ([2]; CDK7 over CDK5) | IC50 [2, 12] [µM] | IC50 [3, 13] [µM] | IC50 [5, 14] [µM] | IC50 [7, 15] [µM]
CCC(O)(CC)c1ccn(-c2cccc(Cl)c2CNc2nc(N3CCC(N)CC3)nc3c(C(C)C)cnn23)n1 [Compound 253] | 1 to 10 | B (B=less than 200 fold, but greater than 20 fold) | B (B=less than 200 fold, but greater than 20 fold) | B (B=less than 200 fold, but greater than 20 fold) | 0.1 to 1 | > 1 | 1 to 10 | > 1 | 1 to 10 | > 1 | – | – | – | – | – | – | –
CC(C)c1cnn2c(NCc3ccccc3-c3ccc4ccccc4n3)nc(OC3CCC(O)CC3)nc12 (stereo not shown) [Compound 269] | < 1 | A (A=greater than 200 fold) | A (A=greater than 200 fold) | A (A=greater than 200 fold) | < 0.1 | > 1 | ≤ 1 | > 1 | 1 to 10 | > 1 | – | – | – | – | – | – | –
CC(C)c1cnn2c(NCc3ccccc3-c3ccc4ccccc4n3)nc(NC[C@@H](O)CN)nc12 [Compound 248] | < 1 | – | – | – | – | – | ≤ 1 | – | 1 to 10 | – | A (A=greater than 200 fold) | A (A=greater than 200 fold) | A (A=greater than 200 fold) | < 0.1 | > 1 | > 1 | > 1
CC(C)c1cnn2c(NCc3ccccc3-c3ccc4ccccc4n3)nc(N3CCOCC3)nc12 [Compound 268] | < 1 | A (A=greater than 200 fold) | A (A=greater than 200 fold) | A (A=greater than 200 fold) | < 0.1 | > 1 | 1 to 10 | > 1 | > 10 | > 1 | – | – | – | – | – | – | –
Cc1cn(-c2cccc(Cl)c2CNc2nc(N3CCC(N)CC3)nc3c(C(C)C)cnn23)nc1C(C)(C)O [Compound 256] | < 1 | A (A=greater than 200 fold) | A (A=greater than 200 fold) | A (A=greater than 200 fold) | < 0.1 | > 1 | ≤ 1 | > 1 | < 1 | > 1 | – | – | – | – | – | – | –
CC(C)c1cnn2c(NCc3c(Cl)cccc3-n3ccc(C(C)(C)O)n3)nc(N3CCC(C)(N)CC3)nc12 [Compound 246] | < 1 | – | – | – | – | – | ≤ 1 | – | < 1 | – | A (A=greater than 200 fold) | A (A=greater than 200 fold) | A (A=greater than 200 fold) | < 0.1 | > 1 | > 1 | > 1
CC(C)c1cnn2c(NCc3ccccc3-c3ccc4ccccc4n3)nc(NC3CCC(O)CC3)nc12 (stereo not shown) [Compound 270] | 1 to 10 | A (A=greater than 200 fold) | A (A=greater than 200 fold) | A (A=greater than 200 fold) | < 0.1 | > 1 | 1 to 10 | > 1 | 1 to 10 | > 1 | – | – | – | – | – | – | –
